What was measured:
[1] = system: Brassica napus (winter rape, BRSNW); assay: Greenhouse postemergence trial BRSNW; type: in vivo; settings: for visual injury, Obs: partner herbicide 560 g/ha alone
Procedure: (§1) Seeds of the desired test plant species were planted in a 90:10% v/v (volume/volume) mixture of PRO-MIX® BX (Premier Tech Horticulture, Quakertown, PA, USA) and PROFILE® GREENS GRADE™ (Profile Products LLC, Buffalo Grove, IL, USA) planting mixture, which typically has a pH of 5.2 to 6.2 and an organic matter content of at least 50 percent, in plastic pots with a surface area of 103.2 square centimeters (cm^2). […] The plants were grown for 7-36 days (d) in a greenhouse with an approximate 14-hour (h) photo-period which was maintained at about 23° C. during the day and 22° C. during the night. Nutrients and water were added on a regular basis and supplemental lighting was provided with overhead metal halide 1000-Watt lamps as necessary. The plants were employed for testing when they reached the second or third true leaf stage.
(§2) Emulsifiable concentrates of each of each pyridine carboxylate herbicide (Compound A or Compound B) were prepared at 100 grams acid equivalent per liter (g ae/L). The emulsifiable concentrates also included a safener, cloquintocet-mexyl, at 120 grams active ingredient per liter (g ai/L), unless otherwise noted below. An aliquot of each emulsifiable concentrate was placed in a 25 mL glass vial and diluted with an aqueous mixture of 1.25% (v/v) ACTIROB® B esterified rapeseed oil (Bayer Crop Science, Research Triangle Park, NC, USA) or MSO® Concentrate with LECI-TECH® methylated soybean oil (Loveland Products, Loveland, CO, USA) to obtain concentrated stock solutions at the highest application rate for each herbicide, based upon a 12 milliliter (mL) application volume at a rate of 187 liters per hectare (L/ha). The concentrated stock solutions were further diluted with an aqueous mixture of 1.25% v/v ACTIROB® B or MSO® Concentrate with LECI-TECH® to obtain stock solutions at reduced application rates for each herbicide. Spray solutions of the herbicide combinations (Compound A or Compound B plus synthetic auxin herbicide or auxin transport inhibitor) were prepared by adding weighed amounts or aliquots of the synthetic auxin herbicide or auxin transport inhibitor to the stock solutions of Compound A or Compound B to form 12-mL spray solutions in two-way combinations.
(§3) The spray solutions were applied to the plant material with an overhead Mandel track sprayer equipped with 8002E nozzles calibrated to deliver 187 L/ha over an application area of 0.503 square meters (m^2) at a spray height of 18 inches (43 centimeters (cm)) above the average plant canopy. Control plants were sprayed in the same manner with the solvent blank. All pyridine carboxylate herbicide (component a) application rates are given as “g ae/ha” and all synthetic auxin herbicide or auxin transport inhibitor (component b) application rates are given as “g ai/ha.”
(§4) The treated plants and control plants were placed in a greenhouse as described above and watered by sub-irrigation to prevent wash-off of the test compounds. After 20-22 d, the condition of the test plants as compared with that of the control plants was determined visually and scored on a scale of 0 to 100 percent where 0 corresponds to no injury and 100 corresponds to complete kill.

[2] = system: Polygonum convolvulus (wild buckwheat, POLCO); assay: Greenhouse postemergence trial POLCO; type: in vivo; settings: for visual injury, Obs: partner herbicide 560 g/ha alone
Procedure: as §1, §2, §3, §4

[3] = system: Cirsium arvense (Canadian thistle, CIRAR); assay: Greenhouse postemergence trial CIRAR; type: in vivo; settings: for visual injury, Obs: partner herbicide 560 g/ha alone
[4] = system: Sinapis arvensis (wild mustard, SINAR); assay: Greenhouse postemergence trial SINAR; type: in vivo; settings: SINAR; for visual injury, Obs: partner herbicide 560 g/ha alone
[5] = system: Salsola kali (Russian thistle, SASKR); assay: Greenhouse postemergence trial SASKR; type: in vivo; settings: SASKR; for visual injury, Obs: partner herbicide 560 g/ha alone;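 on all read-outs here: greenhouse plants sprayed at second or third true leaf stage, injury rated by eye after 20-22 d against solvent-blank controls, 0 meaning no injury, 100 complete kill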
[6] = system: Kochia scoparia (kochia, KCHSC); assay: Greenhouse postemergence trial KCHSC; type: in vivo; settings: KCHSC; for visual injury, Obs: partner herbicide 560 g/ha alone
[7] = system: Chenopodium album L. (common lambsquarters, CHEAL); assay: Greenhouse postemergence trial CHEAL; type: in vivo; settings: for % visual injury: c1-2 Compound A 7.5/10;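 on all read-outs here: greenhouse plants sprayed at second to third true leaf stage, injury rated by eye after 20-22 d versus solvent-blank sprayed controls, 0 = no injury, 100 = complete kill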
Procedure: (§5) The plants were grown for 7-36 days (d) in a greenhouse with an approximate 14-hour (h) photo-period which was maintained at about 23° C. during the day and 22° C. during the night. Nutrients and water were added on a regular basis and supplemental lighting was provided with overhead metal halide 1000-Watt lamps as necessary. The plants were employed for testing when they reached the second or third true leaf stage.
(§6) The emulsifiable concentrates also included a safener, cloquintocet-mexyl, at 120 grams active ingredient per liter (g ai/L), unless otherwise noted below.
(§7) Control plants were sprayed in the same manner with the solvent blank. All pyridine carboxylate herbicide (component a) application rates are given as “g ae/ha” and all synthetic auxin herbicide or auxin transport inhibitor (component b) application rates are given as “g ai/ha.”
as §4

[8] = system: Amaranthus retroflexus (pigweed, AMARE); assay: Greenhouse postemergence trial AMARE; type: in vivo; settings: for % visual injury: c1-2 Compound A 7.5/10;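 on all read-outs here: Greenhouse-grown plants sprayed at second to third true leaf stage, injury rated by eye after 20-22 d versus solvent-blank sprayed controls, 0 = no injury, 100 = complete kill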
Procedure: as §5, §6, §7, §4

[9] = system: Matricaria chamomilla (wild chamomile, MATCH); assay: Greenhouse postemergence trial MATCH; type: in vivo; settings: MATCH; for visual injury, Obs: partner herbicide 560 g/ha alone; for % visual injury, Obs: applied alone;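 on all read-outs here: greenhouse plants sprayed at second to third true leaf stage, injury rated by eye 20-22 d later versus solvent-blank controls on 0–100 scale, 0 no injury, 100 complete kill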
[10] = system: Triticum aestivum (spring wheat, TRZAS); type: in vivo
[11] = system: Cyanus segetum (cornflower, CENCY); assay: Greenhouse postemergence trial CENCY; type: in vivo; settings: CENCY; for visual injury, Obs: partner herbicide 560 g/ha alone
[12] = system: Viola arvensis (field violet, VIOAR); assay: Greenhouse postemergence trial VIOAR; type: in vivo; settings: VIOAR; for visual injury, Obs: partner herbicide 560 g/ha alone
[13] = system: Veronica hederifolia (ivyleaf speedwell, VERHE); assay: Greenhouse postemergence trial VERHE; type: in vivo; settings: VERHE; for visual injury, Obs: partner herbicide 560 g/ha alone
[14] = system: Papaver rhoeas (corn poppy, PAPRH); assay: Greenhouse postemergence trial PAPRH; type: in vivo; settings: PAPRH; for visual injury, Obs: partner herbicide 560 g/ha alone
[15] = system: Veronica persica (bird's-eye speedwell, VERPE); assay: Greenhouse postemergence trial VERPE; type: in vivo; settings: VERPE; for visual injury, Obs: partner herbicide 560 g/ha alone
Procedure: as §1, §2, §3, §4

[16] = system: Papaver rhoeas (corn poppy), herbicide-resistant (PAPRH-R); assay: Greenhouse postemergence trial PAPRH-R; type: in vivo; settings: PAPRH-R; for visual injury, Obs: partner herbicide 560 g/ha alone
[17] = system: Capsella bursa-pastoris (shepherd's purse, CAPBP); assay: Greenhouse postemergence trial CAPBP; type: in vivo; settings: CAPBP; for visual injury, Obs: partner herbicide 560 g/ha alone
[18] = system: Stellaria media (chickweed, STEME); assay: Greenhouse postemergence trial STEME; type: in vivo; settings: STEME; for visual injury, Obs: partner herbicide 560 g/ha alone
[19] = system: Anthemis arvensis (field chamomile, ANTAR); assay: Greenhouse postemergence trial ANTAR; type: in vivo; settings: ANTAR; for visual injury, Obs: partner herbicide 560 g/ha alone
[20] = system: Matricaria discoidea (pineapple weed, MATMT); assay: Greenhouse postemergence trial MATMT; type: in vivo; settings: MATMT; for visual injury, Obs: partner herbicide 560 g/ha alone
Procedure: as §1, §2, §3, §4

[21] = system: Matricaria inodora (false chamomile, MATIN); assay: Greenhouse postemergence trial MATIN; type: in vivo; settings: MATIN; for visual injury, Obs: partner herbicide 560 g/ha alone
[22] = system: Lamium purpureum (purple deadnettle, LAMPU); assay: Greenhouse postemergence trial LAMPU; settings: LAMPU; for visual injury, Obs: partner herbicide 560 g/ha alone
Procedure: as §5, §6, §7, §4

[23] = system: Viola tricolor (wild pansy, VIOTR); assay: Greenhouse postemergence trial VIOTR; settings: VIOTR; for visual injury, Obs: partner herbicide 560 g/ha alone;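 on all read-outs here: greenhouse plants sprayed at second to third true leaf stage, injury rated visually after 20-22 d against solvent-blank sprayed controls, 0 meaning no injury and 100 complete kill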
Procedure: as §1, §2, §3, §4

[24] = system: Hordeum vulgare (spring barley, HORVS); type: in vivo; settings: HORVS
Procedure: as §1, §2, §3, §4

[25] = system: Triticum aestivum (winter wheat, TRZAW); assay: Greenhouse postemergence crop phytotoxicity TRZAW; type: in vivo; settings: TRZAW; applied alone, 560 g/ha
Procedure: as §1, §2, §3, §4

[26] = system: Hordeum vulgare (winter barley, HORVW); assay: Greenhouse postemergence crop phytotoxicity HORVW; type: in vivo; settings: HORVW; applied alone, 560 g/ha
[27] = c3 2,4-D-EHE 280, c4-5 A 7.5/10 + 2,4-D-EHE 280 g/ha
[28] = c3 Dicamba 140, c4-5 A 7.5/10 + Dicamba 140 g/ha

CCCCC(CC)COC(=O)COc1ccc(Cl)cc1Cl [2,4-D-EHE, 2,4-D-2-ethylhexyl, reference compound]
BRSNW % visual injury Obs ([1]; 2,4-D-EHE 280 g/ha (Table 36)): 65% | BRSNW Δ (Obs minus Exp) ([1]; 2,4-D-EHE 280 g/ha (Table 36)): 3% | visual injury, Obs ([1]; BRSNW): 100% | POLCO % visual injury Obs ([2]; 2,4-D-EHE 280 g/ha (Table 36)): 23% | POLCO Δ (Obs minus Exp) ([2]; 2,4-D-EHE 280 g/ha (Table 36)): 11% | visual injury, Obs ([2]; POLCO): 30% | CIRAR % visual injury Obs ([3]; 2,4-D-EHE 280 g/ha (Table 36)): 45% | visual injury, Obs ([3]; CIRAR): 65% | visual injury, Obs [4]: 85% | visual injury, Obs [5]: 65% | visual injury, Obs [6]: 65% | % visual injury [7, 27]: 75% | AMARE % visual injury Obs ([8]; 2,4-D-EHE 280 g/ha (Table 36)): 45% | % visual injury [8, 27]: 70% | visual injury, Obs [9]: 10% | % visual injury (crop phytotoxicity) ([10]; c1-2 Compound A 7.5/10, c3 2,4-D-EHE 280, c4-5 A 7.5/10 + 2,4-D-EHE 280 g/ha): 0% | visual injury, Obs [11]: 100% | visual injury, Obs [12]: 60% | visual injury, Obs [13]: 70% | visual injury, Obs [14]: 60% | visual injury, Obs [15]: 65% | visual injury, Obs [16]: 50% | visual injury, Obs [17]: 70% | visual injury, Obs [18]: 10% | visual injury, Obs [19]: 60% | visual injury, Obs [20]: 5% | visual injury, Obs [21]: 10% | visual injury, Obs [22]: 20% | visual injury, Obs [23]: 65%

COc1c(Cl)ccc(Cl)c1C(=O)O [Dicamba, dicamba, reference compound]
visual injury, Obs ([1]; BRSNW): 70% | plant injury at 140 g/ha ([1]; Brassica napus, post-emergence, BRSNW, applied alone, 140 g/ha, read-out: % visual injury, Obs): 23% | visual injury, Obs ([2]; POLCO): 100% | visual injury, Obs ([3]; CIRAR): 70% | visual injury, Obs [4]: 85% | visual injury, Obs [5]: 65% | visual injury, Obs [6]: 80% | % visual injury [7, 28]: 48% | % visual injury, Obs ([8]; AMARE, applied alone, 140 g/ha): 60% | % visual injury [8, 28]: 50% | % visual injury, Obs ([9]; 140 g/ha): 3% | visual injury, Obs [9]: 35% | visual injury, Obs [11]: 100% | visual injury, Obs [12]: 30% | visual injury, Obs [13]: 75% | visual injury, Obs [14]: 30% | visual injury, Obs [15]: 60% | visual injury, Obs [16]: 30% | visual injury, Obs [17]: 60% | visual injury, Obs [18]: 75% | visual injury, Obs [19]: 100% | visual injury, Obs [20]: 25% | visual injury, Obs [21]: 70% | visual injury, Obs [22]: 20% | visual injury, Obs [23]: 20%

Cc1cc(Cl)ccc1OC(C)C(=O)O (stereo not shown) [Mecoprop]
% visual injury (Obs) ([1]; BRSNW, alone 280 g/ha): 63% | plant injury at 560 g/ha ([1]; Brassica napus, post-emergence, BRSNW, applied alone, 560 g/ha, read-out: % visual injury, Obs): 75% | % visual injury (Obs) ([2]; POLCO, alone 280 g/ha): 10% | % visual injury, Obs ([2]; POLCO, applied alone, 560 g/ha): 20% | % visual injury (Obs) ([3]; CIRAR, alone 280 g/ha): 68% | % visual injury, Obs ([3]; CIRAR, applied alone, 560 g/ha): 70% | % visual injury (Obs) ([4]; alone 280 g/ha): 80% | % visual injury, Obs ([4]; applied alone, 560 g/ha): 95% | % visual injury, Obs ([5]; applied alone, 560 g/ha): 50% | % visual injury (Obs) ([6]; alone 280 g/ha): 68% | % visual injury, Obs ([6]; applied alone, 560 g/ha): 80% | % visual injury (Obs) ([7]; CHEAL, alone 280 g/ha): 73% | % visual injury (Obs) ([8]; AMARE, alone 280 g/ha): 58% | % visual injury (Obs) ([9]; alone 280 g/ha): 18% | % visual injury, Obs ([9]; 560 g/ha): 10% | % visual injury (Obs) ([10]; TRZAS, alone 280 g/ha): 0% | % visual injury, Obs ([10]; TRZAS, applied alone, 560 g/ha): 0% | % visual injury (Obs) ([24]; alone 280 g/ha): 0% | % visual injury, Obs ([24]; applied alone, 560 g/ha): 0% | % visual injury, Obs ([11]; applied alone, 560 g/ha): 100% | % visual injury, Obs ([12]; applied alone, 560 g/ha): 10% | % visual injury, Obs ([13]; applied alone, 560 g/ha): 50% | % visual injury, Obs ([14]; applied alone, 560 g/ha): 65% | % visual injury, Obs ([15]; applied alone, 560 g/ha): 30% | % visual injury, Obs ([16]; applied alone, 560 g/ha): 30% | % visual injury, Obs ([17]; applied alone, 560 g/ha): 60% | % visual injury, Obs ([18]; applied alone, 560 g/ha): 30% | % visual injury, Obs ([19]; applied alone, 560 g/ha): 10% | % visual injury, Obs ([20]; applied alone, 560 g/ha): 10% | % visual injury, Obs ([21]; applied alone, 560 g/ha): 65% | % visual injury, Obs [25]: 0% | % visual injury, Obs [26]: 0% | % visual injury, Obs ([22]; applied alone, 560 g/ha): 10% | % visual injury, Obs ([23]; applied alone, 560 g/ha): 65%
